# Results taken from patent US20200148646A1, “6-S[…] 7-S[…] ANALOGS AND THE USE THEREOF” (Purdue Pharma, L.P., priority 2013, published 2020).
# Tests used:
# μ-opioid receptor [1] = target: T1, μ-opioid receptor (Homo sapiens, UniProt P35372); assay: μ-opioid receptor radioligand ([3H]-diprenorphine) dose-displacement binding assay, HEK-293 or CHO cells
# Method: Radioligand dose-displacement binding assays for μ-opioid receptors used 0.3 nM [^3H]-diprenorphine (Perkin Elmer, Shelton, Conn.), with […] membrane protein/well in a final volume of 500 μl binding buffer (10 mM MgCl2, 1 mM EDTA, 5% DMSO, 50 mM HEPES, pH 7.4). Reactions were carried out in the absence or presence of increasing concentrations of unlabeled naloxone. All reactions were conducted in 96-deep well polypropylene plates for 2 hr at room temperature. Binding reactions were terminated by rapid filtration onto 96-well Unifilter GF/C filter plates (Perkin Elmer, Shelton, Conn.), presoaked in 0.5% polyethylenimine using a 96-well tissue harvester (Perkin Elmer, Shelton, Conn.) followed by performing three filtration washes with 500 μl of ice-cold binding buffer. Filter plates were subsequently dried at 50° C. for 2-3 hours. BetaScint scintillation cocktail (Perkin Elmer, Shelton, Conn.) was added (50 l/well), and plates were counted using a Packard Top-Count for 1 min/well. The data were analyzed using the one-site competition curve fitting functions in GraphPad PRISM™ v. 3.0 or higher (San Diego, Calif.), or an in-house function for one-site competition curve-fitting.
# (§1) In TABLE 1, binding affinity of certain Compounds of the Invention to the μ-, and κ-opioid receptors in HEK-293 or CHO cells was determined as described above.
# μ-opioid receptor [2] = target: T1, μ-opioid receptor; assay: μ-opioid receptor [35S]GTPγS functional assay, HEK-293 or CHO cells; assay type: biochemical; settings: for Emax: HEK-293 or CHO cells, relative to DAMGO
# Method: [^35S]GTPγS functional assays were conducted using freshly thawed μ-receptor membranes prepared in-house from a cell line expressing recombinant opioid receptor in a HEK-293, CHO or U-2 OS cell background, or purchased from a commercial source (Perkin Elmer, Shelton, Conn.; or DiscovRx, Fremont, Calif.). Assay reactions were prepared by sequentially adding the following reagents to binding buffer (100 mM NaCl, 10 mM MgCl2, 20 mM HEPES, pH 7.4) on ice (final concentrations indicated): membrane protein (0.026 mg/mL), saponin ([…]), GDP ([…]) and [^35S]GTPγS (0.20 nM; Perkin Elmer, Shelton, Conn.). The prepared membrane solution (190 l/well) was transferred to 96-shallow well polypropylene plates containing 10 μl of 20× concentrated stock solutions of the agonist [D-Ala^2, N-methyl-Phe^4 Gly-ol^5]-enkephalin (DAMGO) prepared in dimethyl sulfoxide (DMSO). Plates were incubated for 30 min at about 25° C. with shaking. Reactions were terminated by rapid filtration onto 96-well Unifilter GF/B filter plates (Perkin Elmer, Shelton, Conn.) using a 96-well tissue harvester (Perkin Elmer, Shelton, Conn.) followed by three filtration washes with 200 μl of ice-cold wash buffer (10 mM NaH2PO4, 10 mM Na2HPO4, pH 7.4). Filter plates were subsequently dried at 50° C. for 2-3 hr. BetaScint scintillation cocktail (Perkin Elmer, Shelton, Conn.) was added (50 μl/well) and plates were counted using a Packard Top-Count for 1 min/well. Data were analyzed using the sigmoidal dose-response curve fitting functions in GraphPad PRISM v. 3.0, or an in-house function for non-linear, sigmoidal dose-response curve-fitting.
# μ GTP EC50 is the concentration of a compound providing 50% of the maximal response for the compound at a μ-opioid receptor.
# μ GTP Emax (%) is the maximal effect elicited by a compound relative to the effect elicited by DAMGO, a standard agonist. Generally, the μ GTP Emax (%) value measures the efficacy of a compound to treat or prevent pain or other Conditions.
# In TABLE 2, activity response of certain Compounds of the Invention at the μ- and κ-opioid receptors using HEK-293 or CHO cells was determined as described above for functional assays.
# human κ opioid receptor [3] = target: T2, human κ opioid receptor (Homo sapiens, UniProt P41145); assay: κ-opioid receptor radioligand ([3H]-U69,593) dose-displacement binding assay, HEK-293 or CHO cells; design: expressed in transfected cells; host or cells: HEK-293 cells (in-house prep)
# Method: Membranes from recombinant HEK-293 cells expressing the human K opioid receptor (cloned in house) were prepared by lysing cells in ice cold hypotonic buffer (2.5 mM MgCl2, 50 mM HEPES, pH 7.4) (10 mL/10 cm dish) followed by homogenization with a tissue grinder/Teflon pestle. Membranes were collected by centrifugation at 30,000×g for 15 min at 4° C. and pellets were resuspended in hypotonic buffer to a final concentration of 1-3 mg/mL. Protein concentrations were determined using the BioRad protein assay reagent with bovine serum albumen as standard. Aliquots of κ receptor membranes were stored at −80° C.
# Radioligand dose displacement assays used 0.4 nM [^3H]-U69,593 (GE Healthcare, Piscataway, N.J.; 40 Ci/mmole) with 15 μg membrane protein (recombinant K opioid receptor expressed in HEK 293 cells; in-house prep) in a final volume of 200 μl binding buffer (5% DMSO, 50 mM Trizma base, pH 7.4). Non-specific binding was determined in the presence of 10 μM unlabeled naloxone or U69,593. All reactions were performed in 96-well polypropylene plates for 1 hr at a temperature of about 25° C. Binding reactions were terminated by rapid filtration onto 96-well Unifilter GF/C filter plates (Perkin Elmer, Shelton, Conn.) presoaked in 0.5% polyethylenimine (Sigma). Harvesting was performed using a 96-well tissue harvester (Perkin Elmer, Shelton, Conn.) followed by five filtration washes with 200 μl ice-cold binding buffer. Filter plates were subsequently dried at 50° C. for 1-2 hours. Fifty μl/well scintillation cocktail (Perkin Elmer, Shelton, Conn.) was added and plates were counted in a Packard Top-Count for 1 min/well.
# as §1
# μ-opioid receptor [4] = target: T1, μ-opioid receptor; assay: μ-opioid receptor [35S]GTPγS functional assay, U-2 OS cells; assay type: biochemical; design: host or cells: U-2 OS cells; settings: for Emax: U2-OS cells, relative to DAMGO
# Method in brief: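 U-2 OS membranes expressing recombinant human μ-receptor (0.026 mg/mL) were incubated with compound, […], saponin and [35S]GTPγS 0.20 nM in HEPES/NaCl/MgCl2 buffer pH 7.4 for 30 min at about 25° C. Filter-bound radioactivity gave sigmoidal fits for EC50; Emax is relative to DAMGO.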
# human κ opioid receptor [5] = target: T2, human κ opioid receptor; assay: κ-opioid receptor [35S]GTPγS functional assay, U-2 OS cells; assay type: biochemical; design: expressed in transfected cells; host or cells: U-2 OS cells (in-house membranes); settings: for Emax: U2-OS cells, relative to U69,593
# Method in brief: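 Membranes from U-2 OS cells expressing human κ receptor (0.026 μg/μl protein) were incubated with agonist, 10 μg/mL saponin, 3 μM GDP and 0.20 nM [35S]GTPγS in pH 7.4 HEPES buffer for 30 min at about 25 °C. Bound radioactivity was measured after filtration. EC50 was taken at half-maximal response; Emax is relative to U69,593.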
# T2 sequence (P41145 whole entry): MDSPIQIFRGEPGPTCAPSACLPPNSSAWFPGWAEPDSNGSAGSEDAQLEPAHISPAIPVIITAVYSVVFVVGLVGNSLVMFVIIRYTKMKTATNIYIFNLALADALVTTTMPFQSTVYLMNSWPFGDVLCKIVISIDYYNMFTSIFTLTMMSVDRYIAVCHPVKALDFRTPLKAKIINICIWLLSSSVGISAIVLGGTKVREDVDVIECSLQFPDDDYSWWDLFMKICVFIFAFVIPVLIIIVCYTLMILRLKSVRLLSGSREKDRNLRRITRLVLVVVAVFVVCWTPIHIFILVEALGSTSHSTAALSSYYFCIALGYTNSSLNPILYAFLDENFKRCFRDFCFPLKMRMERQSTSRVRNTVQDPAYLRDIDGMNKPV
# T1 sequence (P35372 whole entry, species assumed): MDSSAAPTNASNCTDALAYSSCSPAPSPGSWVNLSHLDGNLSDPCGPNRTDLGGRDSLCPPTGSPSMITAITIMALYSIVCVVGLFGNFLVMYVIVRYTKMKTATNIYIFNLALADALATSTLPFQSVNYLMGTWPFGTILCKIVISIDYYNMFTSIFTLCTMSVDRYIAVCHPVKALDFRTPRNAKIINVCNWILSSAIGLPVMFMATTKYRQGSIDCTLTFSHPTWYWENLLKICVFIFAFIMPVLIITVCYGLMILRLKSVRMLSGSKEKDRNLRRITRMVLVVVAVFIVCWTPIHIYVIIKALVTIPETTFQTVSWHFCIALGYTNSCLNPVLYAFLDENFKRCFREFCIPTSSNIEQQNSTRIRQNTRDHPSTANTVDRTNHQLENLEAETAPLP
Structure (SMILES),Ki (μ-opioid receptor [1]) [nM],EC50 (μ-opioid receptor [2]) [nM],Emax (μ-opioid receptor [2]) [%],Ki (human κ opioid receptor [3]) [nM],EC50 (μ-opioid receptor [4]) [nM],Emax (μ-opioid receptor [4]) [%],EC50 (human κ opioid receptor [5]) [nM],Emax (human κ opioid receptor [5]) [%]
"COc1ccc2c(c1)[C@]13CCN(CC4CC4)[C@H](C2)[C@]1(O)C[C@H](C)[C@H](O)C3 [Compound 3, (4bR,6R,7S,8aS,9R)-11-(cyclopropylmethyl)-3-methoxy-7-methyl-5,6,7,8,9,10-hexahydro-8aH-9,4b-(epiminoethano)phenanthrene-6,8a-diol]",6140 ± 963,2750,58.7 ± 4.18,3010 ± 339,,,,
"COc1ccc2c(c1)[C@]13CCN(CC4CC4)[C@H](C2)[C@]1(O)C[C@H](CO)[C@H](O)C3 [Compound 7, (4bR,6R,7R,8aS,9R)-11-(cyclopropylmethyl)-7-(hydroxymethyl)-3-methoxy-5,6,7,8,9,10-hexahydro-8aH-9,4b-(epiminoethano)phenanthrene-6,8a-diol]",10800 ± 843,4910,53.7 ± 4.37,7300 ± 1640,,,,
"CN(C)[C@H]1CC[C@@]2(O)[C@H]3Cc4ccc(O)cc4[C@@]2(CCN3CC2CC2)C1 [Compound 10, (4bR,6S,8aS,9R)-11-(cyclopropylmethyl)-6-(dimethylamino)-5,6,7,8,9,10-hexahydro-8aH-9,4b-(epiminoethano)phenanthrene-3,8a-diol]",3.84 ± 1.36,> 20000,2.5,0.057 ± 0.01,4.69 ± 0.74,33 ± 1.15,0.79 ± 0.07,101 ± 6.23
"NCCN[C@@H]1CC[C@@]2(O)[C@H]3Cc4ccc(O)cc4[C@@]2(CCN3CC2CC2)C1 [Compound 11, (4bR,6R,8aS,9R)-6-((2-aminoethyl)amino)-11-(cyclopropylmethyl)-5,6,7,8,9,10-hexahydro-8aH-9,4b-(epiminoethano)phenanthrene-3,8a-diol]",71 ± 28.1,> 20000,6.33 ± 1.67,0.29 ± 0.049,37.9 ± 12,70 ± 8.08,2.75 ± 0.48,119 ± 0.58
"NCCCN[C@@H]1CC[C@@]2(O)[C@H]3Cc4ccc(O)cc4[C@@]2(CCN3CC2CC2)C1 [Compound 13, (4bR,6R,8aS,9R)-6-((3-aminopropyl)amino)-11-(cyclopropylmethyl)-5,6,7,8,9,10-hexahydro-8aH-9,4b-(epiminoethano)phenanthrene-3,8a-diol]",80 ± 27.1,,,0.51 ± 0.073,38.9 ± 4.9,66.3 ± 5.78,2.13 ± 0.41,117 ± 1.86
"N=C(N)NCCC(=O)N[C@@H]1CC[C@@]2(O)[C@H]3Cc4ccc(O)cc4[C@@]2(CCN3CC2CC2)C1 [Compound 21, N-((4bR,6R,8aS,9R)-11-(cyclopropylmethyl)-3,8a-dihydroxy-6,7,8,8a,9,10-hexahydro-5H-9,4b-(epiminoethano)phenanthren-6-yl)-3-guanidinopropanamide]",1010 ± 221,,,4.61 ± 1.05,,,120 ± 2.94,105.3 ± 0.88
"COc1ccc2c(c1)[C@@]13CC[C@H](NC(=O)C(C)C)C[C@@]1(O)[C@@H](C2)N(CC1CC1)CC3 [Compound 45, N-((4bS,7S,8aS,9R)-11-(cyclopropylmethyl)-8a-hydroxy-3-methoxy-6,7,8,8a,9,10-hexahydro-5H-9,4b-(epiminoethano)phenanthren-7-yl)isobutyramide]",,308 ± 122,15.3 ± 1.86,,72 ± 15.9,71 ± 5.69,10.6 ± 2.1,106 ± 1
"CC(C)C(=O)N[C@H]1CC[C@]23CCN(CC4CC4)[C@H](Cc4ccc(O)cc42)[C@]3(O)C1 [Compound 46, N-((4bS,7S,8aS,9R)-11-(cyclopropylmethyl)-3,8a-dihydroxy-6,7,8,8a,9,10-hexahydro-5H-9,4b-(epiminoethano)phenanthren-7-yl)isobutyramide]",,> 20000,7.67 ± 3.48,,0.38 ± 0.11,54 ± 6.03,0.1 ± 0.021,102 ± 5.24
"CC(C)CCCC(=O)N[C@H]1C[C@@]2(O)[C@H]3Cc4ccc(O)cc4[C@@]2(CCN3CC2CC2)C[C@H]1O [Compound 62, N-((4bR,6R,7S,8aS,9R)-11-(cyclopropylmethyl)-3,6,8a-trihydroxy-6,7,8,8a,9,10-hexahydro-5H-9,4b-(epiminoethano)phenanthren-7-yl)-5-methylhexanamide]",,54.7 ± 4.52,23.3 ± 0.67,,43.3 ± 5.6,60.3 ± 0.88,17.4 ± 1.46,90.2 ± 1.65
"O=C1C=C2[C@H]3Cc4ccc(O)cc4[C@]2(CC1)CCN3CC1CC1 [Compound 68, (4bS,9R)-11-(cyclopropylmethyl)-3-hydroxy-5,6,9,10-tetrahydro-7H-9,4b-(epiminoethano)phenanthren-7-one]",,> 20000,6 ± 3,,4.54 ± 1.28,31.3 ± 1.33,1.67 ± 0.099,104 ± 2.31
"COc1ccc2c(c1)[C@]13CCN(CC4CC4)[C@H](C2)[C@]12C[C@H](OCc1ccccc1)[C@H](C3)O2 [Compound 102, (4bR,6S,7S,8aS,9R)-7-(benzyloxy)-11-(cyclopropylmethyl)-3-methoxy-5,6,7,8,9,10-hexahydro-9,4b-(epiminoethano)-6,8a-epoxyphenanthrene]",,1520 ± 465,10.5 ± 1.26,,470 ± 69.9,42 ± 1.73,1920,58.3 ± 0.67
